Measured values from US20250205300A1, “PLANT-BASED COMPOSITIONS AND METHODS FOR HORMONE SIGNALING, BLOOD GLUCOSE CONTROL, APPETITE CONTROL, AND WEIGHT MANAGEMENT” (Alpine Biotech, LLC, priority 2023, published 2025).

Legend:
[1] = system: preclinical diabetes model; assay: Plasma GLP-1 levels in preclinical diabetes model (FIG. 2); assay type: in vivo
[2] = system: Human NCI-H716 cells; assay: Secretion of GLP-1 in Human NCI-H716 cells (FIG. 1); assay type: cell-based
Text: FIG. 1 is a graph illustrating the effects of compositions in Human NCI-H716 cells according to an implementation.

SMILES | plasma GLP-1 levels [1] | secretion of GLP-1 [2]
CC/C=C\C/C=C\C/C=C\CCCCCCCC(=O)O [α-linolenic acid] | modulate plasmas GLP-1 levels | modulate the secretion of GLP-1 to various degrees
COc1ccc2cc3[n+](cc2c1OC)CCc1cc2c(cc1-3)OCO2 [Berberine] | modulate plasmas GLP-1 levels | modulate the secretion of GLP-1 to various degrees
O=C(O[C@@H]1Cc2c(O)cc(O)cc2O[C@@H]1c1cc(O)c(O)c(O)c1)c1cc(O)c(O)c(O)c1 [epigallocatechin gallate] | – | modulate the secretion of GLP-1 to various degrees
